Tests used:
JAK3 = JAK3 (Homo sapiens (Human), UniProt P52333); test: Biochemical JAK3 kinase assay (LanthaScreen)
Method in brief: (§1)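 GST-JAK + GFP-STAT1 peptide, HEPES pH 7.5/MgCl2/EGTA/Brij-35 buffer; cpd preincubation 1 h RT; ATP start, 1 h RT; stop with 10 mM EDTA + 2 nM Tb-anti-pSTAT1; TR-FRET 520/495. 4-parameter IC50 → pKi (Cheng-Prusoff).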

[1] = test system: IL-2 stimulated STAT5 phosphorylation in Tall-1 human T cell line (JAK3); test: Cellular JAK3 potency assay: inhibition of IL-2 stimulated pSTAT5 in Tall-1 T cells; format: cell-based
Method in brief: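 AlphaLISA SureFire Ultra measures STAT5 Tyr694/699 phosphorylation in lysed Tall-1 human T cells. Cells were exposed to compound for 1 h at 37 °C before a 30 min IL-2 challenge (300 ng/ml final). Values are pIC50 means with standard deviation from signal-versus-concentration curves.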

JAK2 = JAK2 (Homo sapiens (Human), UniProt O60674); test: Biochemical JAK2 kinase assay (LanthaScreen)
Method in brief: as §1

Tyk2 = Tyk2 (Homo sapiens (Human), UniProt P29597); test: Biochemical Tyk2 kinase assay (LanthaScreen)
Method in brief: as §1

JAK1 = JAK1 (Homo sapiens (Human), UniProt P23458); test: Biochemical JAK1 kinase assay (LanthaScreen)
Method in brief: as §1

[2] = selectivity JAK3 over JAK1, difference of pKi
[3] = IL-2 stimulated pSTAT5, Tall-1 T cells
[4] = selectivity, difference of pKi values
[5] = IL-2 stimulated pSTAT5 in Tall-1 T cells

Tyk2, sequence (P29597 whole entry): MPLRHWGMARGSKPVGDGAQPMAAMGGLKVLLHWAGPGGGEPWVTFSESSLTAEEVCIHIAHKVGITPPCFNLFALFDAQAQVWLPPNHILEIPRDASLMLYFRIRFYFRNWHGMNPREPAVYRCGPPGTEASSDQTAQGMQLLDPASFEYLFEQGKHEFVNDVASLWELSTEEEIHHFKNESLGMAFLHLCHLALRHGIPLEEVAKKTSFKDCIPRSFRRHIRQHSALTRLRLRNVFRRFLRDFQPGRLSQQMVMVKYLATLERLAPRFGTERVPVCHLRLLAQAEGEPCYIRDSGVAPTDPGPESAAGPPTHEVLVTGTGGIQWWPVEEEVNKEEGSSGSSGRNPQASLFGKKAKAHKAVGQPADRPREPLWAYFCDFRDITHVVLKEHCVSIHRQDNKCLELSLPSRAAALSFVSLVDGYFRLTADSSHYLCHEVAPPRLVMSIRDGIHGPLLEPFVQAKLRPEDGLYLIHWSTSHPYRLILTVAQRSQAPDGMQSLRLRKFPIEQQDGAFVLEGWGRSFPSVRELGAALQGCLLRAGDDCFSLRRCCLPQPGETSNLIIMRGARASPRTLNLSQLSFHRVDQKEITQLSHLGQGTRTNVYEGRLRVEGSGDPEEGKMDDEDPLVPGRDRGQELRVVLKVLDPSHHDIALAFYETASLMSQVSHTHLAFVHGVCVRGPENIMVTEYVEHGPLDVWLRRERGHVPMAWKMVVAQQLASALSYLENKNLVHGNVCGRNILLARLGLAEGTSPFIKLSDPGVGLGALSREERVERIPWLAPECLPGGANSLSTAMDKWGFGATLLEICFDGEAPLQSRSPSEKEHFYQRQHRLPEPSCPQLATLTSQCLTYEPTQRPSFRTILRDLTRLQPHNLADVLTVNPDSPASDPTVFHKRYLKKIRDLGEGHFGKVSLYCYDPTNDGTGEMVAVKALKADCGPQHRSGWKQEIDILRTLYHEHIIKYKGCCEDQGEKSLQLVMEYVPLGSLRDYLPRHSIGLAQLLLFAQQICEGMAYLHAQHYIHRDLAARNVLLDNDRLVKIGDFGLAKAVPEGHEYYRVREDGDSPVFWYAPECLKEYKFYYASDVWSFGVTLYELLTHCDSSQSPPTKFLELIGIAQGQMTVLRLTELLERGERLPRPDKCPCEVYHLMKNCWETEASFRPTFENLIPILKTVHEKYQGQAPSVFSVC
JAK2, sequence (O60674 whole entry): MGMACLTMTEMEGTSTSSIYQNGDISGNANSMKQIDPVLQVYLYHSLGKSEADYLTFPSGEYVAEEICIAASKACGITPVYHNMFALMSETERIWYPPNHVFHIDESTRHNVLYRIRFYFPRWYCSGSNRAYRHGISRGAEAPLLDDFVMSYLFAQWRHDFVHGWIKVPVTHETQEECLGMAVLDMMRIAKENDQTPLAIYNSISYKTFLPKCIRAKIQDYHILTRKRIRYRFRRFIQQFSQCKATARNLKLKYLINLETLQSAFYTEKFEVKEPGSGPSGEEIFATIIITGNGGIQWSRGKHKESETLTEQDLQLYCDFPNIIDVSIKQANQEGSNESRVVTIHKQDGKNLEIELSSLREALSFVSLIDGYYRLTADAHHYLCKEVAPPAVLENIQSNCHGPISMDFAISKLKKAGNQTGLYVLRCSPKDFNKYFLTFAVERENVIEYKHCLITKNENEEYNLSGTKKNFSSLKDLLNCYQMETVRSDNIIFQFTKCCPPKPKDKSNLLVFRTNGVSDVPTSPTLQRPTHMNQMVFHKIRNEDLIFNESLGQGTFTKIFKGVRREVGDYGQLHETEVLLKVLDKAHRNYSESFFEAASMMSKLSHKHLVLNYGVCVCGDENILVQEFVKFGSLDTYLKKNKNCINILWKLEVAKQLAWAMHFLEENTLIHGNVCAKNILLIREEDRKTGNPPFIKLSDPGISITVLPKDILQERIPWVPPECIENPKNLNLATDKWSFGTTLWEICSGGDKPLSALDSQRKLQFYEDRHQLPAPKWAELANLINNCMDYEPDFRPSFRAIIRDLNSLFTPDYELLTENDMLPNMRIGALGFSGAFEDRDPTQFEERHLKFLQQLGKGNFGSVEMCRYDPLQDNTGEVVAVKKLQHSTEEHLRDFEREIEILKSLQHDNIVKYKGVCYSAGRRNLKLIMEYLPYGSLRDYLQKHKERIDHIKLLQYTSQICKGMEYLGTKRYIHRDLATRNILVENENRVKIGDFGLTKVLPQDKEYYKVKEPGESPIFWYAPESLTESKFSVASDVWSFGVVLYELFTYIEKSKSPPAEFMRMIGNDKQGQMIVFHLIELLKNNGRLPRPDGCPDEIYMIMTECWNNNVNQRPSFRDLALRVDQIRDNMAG
JAK1, sequence (P23458 whole entry): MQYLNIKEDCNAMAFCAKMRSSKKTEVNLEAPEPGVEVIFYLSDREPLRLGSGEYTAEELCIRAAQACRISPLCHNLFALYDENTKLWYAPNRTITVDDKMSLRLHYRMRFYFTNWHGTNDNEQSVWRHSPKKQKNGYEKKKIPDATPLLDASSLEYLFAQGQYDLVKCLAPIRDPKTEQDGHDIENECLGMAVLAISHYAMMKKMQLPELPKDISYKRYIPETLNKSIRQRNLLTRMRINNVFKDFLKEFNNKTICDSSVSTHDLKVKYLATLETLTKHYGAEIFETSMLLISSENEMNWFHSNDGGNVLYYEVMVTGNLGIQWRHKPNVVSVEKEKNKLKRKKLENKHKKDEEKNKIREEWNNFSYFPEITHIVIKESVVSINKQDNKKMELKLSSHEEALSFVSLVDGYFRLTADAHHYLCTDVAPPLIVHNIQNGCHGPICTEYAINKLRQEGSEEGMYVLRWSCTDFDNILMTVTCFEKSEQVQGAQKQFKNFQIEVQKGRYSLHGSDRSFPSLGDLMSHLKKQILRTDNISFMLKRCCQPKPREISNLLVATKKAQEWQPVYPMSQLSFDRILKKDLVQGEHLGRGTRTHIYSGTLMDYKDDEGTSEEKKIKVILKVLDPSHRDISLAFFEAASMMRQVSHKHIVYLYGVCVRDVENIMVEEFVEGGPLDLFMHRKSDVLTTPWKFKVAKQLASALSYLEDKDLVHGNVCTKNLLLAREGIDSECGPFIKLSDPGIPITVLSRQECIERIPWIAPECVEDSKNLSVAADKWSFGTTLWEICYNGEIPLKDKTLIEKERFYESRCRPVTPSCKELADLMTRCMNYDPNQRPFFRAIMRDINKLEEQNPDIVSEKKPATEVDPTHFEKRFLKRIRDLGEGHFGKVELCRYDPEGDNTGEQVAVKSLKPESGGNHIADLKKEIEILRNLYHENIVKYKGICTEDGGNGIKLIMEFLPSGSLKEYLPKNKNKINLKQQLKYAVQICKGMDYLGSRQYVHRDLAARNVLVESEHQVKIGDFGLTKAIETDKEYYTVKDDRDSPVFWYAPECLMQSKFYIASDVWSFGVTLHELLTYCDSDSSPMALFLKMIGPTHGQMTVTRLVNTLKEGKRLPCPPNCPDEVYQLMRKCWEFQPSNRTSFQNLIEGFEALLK
JAK3, sequence (P52333 whole entry): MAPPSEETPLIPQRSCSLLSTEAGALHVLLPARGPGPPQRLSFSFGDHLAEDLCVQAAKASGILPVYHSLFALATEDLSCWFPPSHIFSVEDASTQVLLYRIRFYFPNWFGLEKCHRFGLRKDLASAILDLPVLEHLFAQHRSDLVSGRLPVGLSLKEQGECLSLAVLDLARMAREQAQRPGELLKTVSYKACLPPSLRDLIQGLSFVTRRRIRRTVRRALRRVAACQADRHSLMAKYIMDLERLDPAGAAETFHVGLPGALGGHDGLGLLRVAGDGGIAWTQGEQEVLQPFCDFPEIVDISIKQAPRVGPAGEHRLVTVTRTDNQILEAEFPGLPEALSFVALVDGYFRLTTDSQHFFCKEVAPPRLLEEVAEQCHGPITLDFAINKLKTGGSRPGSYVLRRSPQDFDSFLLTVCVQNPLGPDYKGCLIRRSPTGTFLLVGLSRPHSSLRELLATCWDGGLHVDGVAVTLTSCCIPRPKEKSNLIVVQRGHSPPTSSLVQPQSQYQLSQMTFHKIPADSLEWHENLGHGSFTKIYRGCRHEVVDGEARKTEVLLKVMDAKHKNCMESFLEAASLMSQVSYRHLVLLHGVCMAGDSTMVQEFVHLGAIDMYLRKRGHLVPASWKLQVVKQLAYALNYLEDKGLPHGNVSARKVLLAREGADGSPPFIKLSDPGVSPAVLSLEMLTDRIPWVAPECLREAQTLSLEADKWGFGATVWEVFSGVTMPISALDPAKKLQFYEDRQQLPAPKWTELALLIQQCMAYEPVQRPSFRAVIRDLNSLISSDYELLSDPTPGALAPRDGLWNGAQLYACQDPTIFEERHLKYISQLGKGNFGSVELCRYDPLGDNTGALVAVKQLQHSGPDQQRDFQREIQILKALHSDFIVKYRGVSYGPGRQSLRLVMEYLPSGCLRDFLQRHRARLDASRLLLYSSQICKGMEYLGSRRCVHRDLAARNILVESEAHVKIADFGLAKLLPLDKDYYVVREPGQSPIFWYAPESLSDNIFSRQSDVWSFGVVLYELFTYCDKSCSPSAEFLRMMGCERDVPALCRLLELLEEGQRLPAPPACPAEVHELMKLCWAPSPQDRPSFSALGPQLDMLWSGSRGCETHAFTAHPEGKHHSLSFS

Compound	JAK 3 (pKi) (JAK3)	JAK3 (pKi)-JAK1 (pKi) (JAK3; [2])	Tall-1 (pIC50) [1, 3]	JAK 2 (pKi) (JAK2)	Tyk 2 (pKi) (Tyk2)	JAK 1 (pKi) (JAK1)	JAK3 (pKi)-JAK1 (pKi) (JAK3; [4])	Tall-1 (pIC50) [1, 5]
C=CC(=O)N1CC(CCn2c(=O)ccc3cnc(Nc4ccc(N5CCN(CC)CC5)cc4)nc32)C1 [Example 114]	A (A represents a pKi value≥10 (Ki≤0.1 nM))	A (A represents a value of 3 or above)	A (A represents a pIC50 value≥7.5 (IC50≤32 nM))	E (E represents a pKi value of 7 or below (Ki of 100 nM or above))	E (E represents a pKi value of 7 or below (Ki of 100 nM or above))	E (E represents a pKi value of 7 or below (Ki of 100 nM or above))	–	–
C=CC(=O)N1CCN(CCn2c(=O)ccc3cnc(Nc4cnn(CCN5CCOCC5)c4)nc32)[C@@H](CC)C1 [Example 244]	B (B represents pKi value between 9 and 10 (Ki between 1 nM and 0.1 nM))	–	–	E (E represents a pKi value of 7 or below (Ki of 100 nM or above))	E (E represents a pKi value of 7 or below (Ki of 100 nM or above))	E (E represents a pKi value of 7 or below (Ki of 100 nM or above))	A (A represents a value of 3 or above)	B (B represents a pC50 value between 6.7 (included) and 7.5 (IC50 between 200 nM and 32 nM))
C=CC(=O)N1CC(C(C)(C)Cn2c(=O)ccc3cnc(Nc4ccc(N5CCN(C)CC5)cc4)nc32)C1 [Example 246]	B (B represents pKi value between 9 and 10 (Ki between 1 nM and 0.1 nM))	–	–	E (E represents a pKi value of 7 or below (Ki of 100 nM or above))	E (E represents a pKi value of 7 or below (Ki of 100 nM or above))	E (E represents a pKi value of 7 or below (Ki of 100 nM or above))	A (A represents a value of 3 or above)	B (B represents a pC50 value between 6.7 (included) and 7.5 (IC50 between 200 nM and 32 nM))
C=CC(=O)N1CC(CCn2c(=O)ccc3cnc(Nc4ccc(N5CCN(C(C)=O)CC5)c(F)c4)nc32)C1 [Example 181]	B (B represents pKi value between 9 and 10 (Ki between 1 nM and 0.1 nM))	A (A represents a value of 3 or above)	B (B represents a pC50 value between 6.7 (included) and 7.5 (IC50 between 200 nM and 32 nM))	E (E represents a pKi value of 7 or below (Ki of 100 nM or above))	E (E represents a pKi value of 7 or below (Ki of 100 nM or above))	E (E represents a pKi value of 7 or below (Ki of 100 nM or above))	–	–
C=CC(=O)N1CC(C)(CCn2c(=O)ccc3cnc(Nc4ccc(N5CCN(C(C)=O)CC5)cc4)nc32)C1 [Example 161]	B (B represents pKi value between 9 and 10 (Ki between 1 nM and 0.1 nM))	A (A represents a value of 3 or above)	A (A represents a pIC50 value≥7.5 (IC50≤32 nM))	E (E represents a pKi value of 7 or below (Ki of 100 nM or above))	E (E represents a pKi value of 7 or below (Ki of 100 nM or above))	E (E represents a pKi value of 7 or below (Ki of 100 nM or above))	–	–
C=CC(=O)N1CC(CCn2c(=O)ccc3cnc(Nc4cccc(CN5CCN(S(=O)(=O)CCOC)CC5)c4)nc32)C1 [Example 132]	A (A represents a pKi value≥10 (Ki≤0.1 nM))	A (A represents a value of 3 or above)	B (B represents a pC50 value between 6.7 (included) and 7.5 (IC50 between 200 nM and 32 nM))	E (E represents a pKi value of 7 or below (Ki of 100 nM or above))	E (E represents a pKi value of 7 or below (Ki of 100 nM or above))	E (E represents a pKi value of 7 or below (Ki of 100 nM or above))	–	–
C=CC(=O)N1CCN(C(C)(C)Cn2c(=O)ccc3cnc(Nc4ccc(N5CCN(C(C)=O)CC5)cc4)nc32)CC1 [Example 200]	C (C represents a pKi value between 8 and 9 (Ki between 10 nM and 1 nM))	B (B represents a value of 2.5 to 3)	C (C represents a pIC50 value between 6 and 6.7 (IC50 between 1 μM and 200 nM))	E (E represents a pKi value of 7 or below (Ki of 100 nM or above))	E (E represents a pKi value of 7 or below (Ki of 100 nM or above))	E (E represents a pKi value of 7 or below (Ki of 100 nM or above))	–	–
C=CC(=O)N1CC(CCn2c(=O)ccc3cnc(Nc4cnn(Cc5ccccc5)c4)nc32)C1 [Example 239]	B (B represents pKi value between 9 and 10 (Ki between 1 nM and 0.1 nM))	–	–	E (E represents a pKi value of 7 or below (Ki of 100 nM or above))	E (E represents a pKi value of 7 or below (Ki of 100 nM or above))	E (E represents a pKi value of 7 or below (Ki of 100 nM or above))	A (A represents a value of 3 or above)	B (B represents a pC50 value between 6.7 (included) and 7.5 (IC50 between 200 nM and 32 nM))

Source: US11697648B2, “Fused pyrimidine pyridinone compounds as JAK inhibitors” (THERAVANCE BIOPHARMA R&D IP, LLC, priority 2019, dated 2023)
